Test results as given in article PMC7774954, “Interactomic affinity profiling by holdup assay: Acetylation and distal residues impact the PDZome-binding specificity of PTEN phosphatase” (PLoS ONE, 2020).
*1 amine or outer side, *2 acyl side, *3 side chain or, on linkers, in order; H or OH if unused. Where a SMILES comes first, the peptide text is derived from it. The star is where a group is joined. X1 = O=C(CCCC[C@@H]1SC[C@@H]2NC(=O)N[C@@H]21)NCCCOCCOCCOCCCN*; Suc = O=C(CCC(=O)[*:2])[*:1]

Tested on: 266 human PDZ domains (PDZome)
Experiment: Holdup assay (chromatographic retention, PDZome-binding profile, BI)
Set-up: key to maximal BI / Max BI / BI: binding intensity: 0.00 = no binding, 1.00 = maximal binding; Log(Kd): unit not given here
Description: The holdup method is a chromatographic approach in solution developed in our group that allows to measure the binding strength of a peptide, attached to a resin, against a library of domains of a same family. We initially proposed this method to explore the interaction between PBM peptides and the human PDZ domains. Briefly, a soluble cell lysate containing individually overexpressed PDZ domain is incubated until equilibrium with a calibrated amount of streptavidin-resin saturated either with the target biotinylated PBM peptide or with biotin as a reference. The flow-throughs containing the unbound protein fraction are recovered by filtration and loaded on a capillary electrophoresis instrument to quantify the amount of remaining free PDZ. The stronger the steady-state depletion of the PDZ domain in the flow-through as compared to the reference, the stronger the PDZ/PBM binding interaction. The assay is particularly suited to quantitatively evaluate and compare large numbers of interactions. This method delivers, for each PBM/PDZ pair, a "binding intensity" (BI), whose value can in principle range from 0.00 (no binding event detected) to 1.00 (maximal binding event). The approach has been automated and the human PDZ library was recently extended to the complete 266 PDZ domains known in human proteome. […] The high accuracy and efficiency of the holdup assay have been validated previously. Very recently, a manual version of the holdup assay with purified samples and using widespread benchtop equipment has been implemented and has proven to be reliable.
The 266 PDZ domains that constitute the PDZ library (“PDZome V.2”) used in the present work were produced using constructs with optimized boundaries as described previously. All the genes were fused to Maltose-Binding Protein (MBP) or Thioredoxin (THR) tag often used to facilitate the solubilisation of the over-expressed protein, by cloning them into the pETG41A or pETG20A plasmid, respectively. […] The expressed tag-PDZ concentrations were quantified using capillary gel electrophoresis and cell lysates were diluted to reach approximately 5 μM tag-PDZ before freezing in 96-well plates. A detailed protocol of the PDZ library production, expression and benchmarking can be found in [32]. PDZ domains are named according to their originating protein name followed by the PDZ number (e.g. NHERF1-1 as the first PDZ domain of the NHERF1 protein).
The holdup assay was performed on a Tecan freedom Evo200 robot with 384-well plates in singlicate for the three 11-mer PTEN variants and the 13-mer PTEN peptide as described in [31, 32]. Briefly, prior to interaction assay, 2.5 μL of streptavidin resin was saturated in each well with 20 μL of biotinylated PBM peptides (42 μM) and then washed twice with an excess of free biotin, while the reference resin was incubated only with biotin. Right before the holdup experiment, the PDZ library was spiked with an internal standard of lysozyme. Then, the biotin- or PBM-saturated resin was incubated, each in a distinct well of a 384-well plate, with complete cell lysates diluted so that the concentration of the tag-PDZ present in the crude extract is adjusted at 4 μM. After a sufficient time to reach complex equilibrium (15 min.), a fast and mild filtration step is performed and the tag-PDZ concentrations were measured by capillary electrophoresis instrument (LabChip GXII, PerkinElmer, Massachusets, USA). Standard markers were used to convert migration time into molecular weight on the LabChip software and inappropriate molecular weight markers were corrected or excluded.
Holdup data quality check and processing […]

[1] = PDZ domain PARD3-1, first of two lines so named (r186)

CC[C@H](C)[C@H](NC(=O)[C@H](CCC(N)=O)NC(=O)[C@@H](NC(=O)[C@H](Cc1c[nH]cn1)NC(=O)[C@H](CCC(N)=O)NC(=O)[C@H](CC(=O)O)NC(=O)[C@H](CCC(=O)O)NC(=O)[C@H](CC(=O)O)NC(=O)[C@H](Cc1ccccc1)NC(=O)[C@@H]1CCCN1C(=O)CCC(=O)NCCCOCCOCCOCCCNC(=O)CCCC[C@@H]1SC[C@@H]2NC(=O)N[C@@H]21)[C@@H](C)O)C(=O)N[C@H](C(=O)N[C@@H](CCCCN)C(=O)N[C@H](C(=O)O)C(C)C)[C@@H](C)O [PTEN_13] ({X1-Suc}-PFDEDQHTQITKV-OH)
number of additional new PDZ partners not detected for PTEN_11 (BI>0.20, compared with PTEN_11): 24
BI (PDZ domain MPDZ-2): 0.095
BI (PDZ domain MPDZ-3): 0.139
BI (PDZ domain MPDZ-4): 0.035
BI (PDZ domain MPDZ-5): -0.002
BI (PDZ domain MPDZ-6): -0.029
BI (PDZ domain MPDZ-7): 0.23
BI (PDZ domain MPDZ-8): 0.039
BI (PDZ domain MPDZ-9 (gene NHERF2, 2)): -0.021
BI (PDZ domain MPDZ-12): 0.024
BI (PDZ domain MPDZ-13): 0.225
BI (PDZ domain MPP1-1): -0.074
BI (PDZ domain MPP2-1): -0.014
BI (PDZ domain MPP3-1): -0.03
BI (PDZ domain MPP4-1): 0
BI (PDZ domain MPP5-1): 0.002
BI (PDZ domain MPP6-1): -0.068
BI (PDZ domain MPP7-1): -0.02
BI (PDZ domain NHERF1-2): 0.132
BI (PDZ domain NHERF3-1): 0.161
BI (PDZ domain NHERF3-2): 0.06
BI (PDZ domain NHERF3-3): 0.068
BI (PDZ domain NHERF3-4): -0.008
BI (PDZ domain NHERF4-1): 0.09
BI (PDZ domain NHERF4-2): 0.132
BI (PDZ domain NHERF4-3): 0.208
BI (PDZ domain NHERF4-4): -0.036
BI (PDZ domain NOS1-1): 0.002
BI [1]: 0.146
Log(Kd) [1]: 4.018
BI (PDZ domain PARD3-2): -0.023
BI (PDZ domain PARD3B-1): -0.096
BI (PDZ domain PARD3B-2): 0.088
BI (PDZ domain PARD3B-3): 0.134
BI (PDZ domain PARD6A-1): -0.115
BI (PDZ domain PARD6G-1): -0.065
BI (PDZ domain PCLO-1): -0.006
BI (PDZ domain PDLIM1-1): -0.067
BI (PDZ domain PDLIM2-1): -0.078
BI (PDZ domain PDLIM3-1): 0.139
BI (PDZ domain PDLIM4-1): 0.003
BI (PDZ domain PDLIM5-1): -0.025
BI (PDZ domain PDLIM7-1): 0.039
BI (PDZ domain PDZD2-1): -0.006
BI (PDZ domain PDZD2-2): 0.054
BI (PDZ domain PDZD2-3): -0.045
BI (PDZ domain PDZD2-4): 0.107
BI (PDZ domain PDZD2-5): 0.195
BI (PDZ domain PDZD2-6): -0.066
BI (PDZ domain PDZD4-1): 0.025
BI (PDZ domain PDZD7-1): -0.034
BI (PDZ domain PDZD7-2): -0.061
BI (PDZ domain PDZD7-3): 0.811
BI (PDZ domain PDZD8-1): 0.038
BI (PDZ domain PDZD9-1): 0.075
BI (PDZ domain PDZD11-1): -0.022
BI (PDZ domain PDZRN3-1): 0.024
BI (PDZ domain PDZRN3-2): 0.032
BI (PDZ domain PDZRN4-1): -0.022
BI (PDZ domain PDZRN4-2): -0.019
BI (PDZ domain PICK1-1): 0.089
BI (PDZ domain PPP1R9A-1): -0.068
BI (PDZ domain PPP1R9B-1): -0.064
BI (PDZ domain PREX1-1): -0.02
BI (PDZ domain PREX1-2): 0.087
BI (PDZ domain PREX2-1): 0.032
BI (PDZ domain PREX2-2): -0.046
BI (PDZ domain PRX-1): -0.006
BI (PDZ domain PSCDBP-1): 0.094
BI (PDZ domain PSMD9-1): 0.022
BI (PDZ domain PTPN3-1): 0.015
BI (PDZ domain PTPN4-1): 0.026
BI (PDZ domain PTPN13-1): 0.009
BI (PDZ domain PTPN13-3): -0.036
BI (PDZ domain PTPN13-5): 0.022
BI (PDZ domain RADIL-1): 0.092
BI (PDZ domain RAPGEF2-1): -0.023
BI (PDZ domain RAPGEF6-1): -0.02
BI (PDZ domain RGS3-1): 0.249
BI (PDZ domain RGS12-1): 0.04
BI (PDZ domain RHPN1-1): 0.479
BI (PDZ domain RHPN2-1): 0.033
BI (PDZ domain RIMS1-1): -0.009
BI (PDZ domain RIMS2-1): -0.031
BI (PDZ domain SCRIB-1): 0.173
BI (PDZ domain SCRIB-2): -0.031
BI (PDZ domain SCRIB-4): -0.007
BI (PDZ domain SDCBP2-1): 0.022
BI (PDZ domain SDCBP2-2): -0.007
BI (PDZ domain SDCBP-2): -0.032
BI (PDZ domain SHROOM2-1): -0.059
BI (PDZ domain SHROOM3-1): -0.047
BI (PDZ domain SHROOM4-1): -0.086
BI (PDZ domain SIPA1-1): -0.045
BI (PDZ domain SIPA1L1-1): 0.023
BI (PDZ domain SIPA1L2-1): -0.04
BI (PDZ domain SIPA1L3-1): -0.026
BI (PDZ domain SNTA1-1): 0.142
BI (PDZ domain SNTB1-1): 0.224
BI (PDZ domain SNTG1-1): 0.14
BI (PDZ domain SNTG2-1): 0.015
number of PDZ domains identified as potential binders (BI>0.20) (holdup, singlicate, threshold BI>0.20): 24 PDZ domains
maximal BI (holdup, singlicate, highest BI in the PDZome profile, BI standard error ~0.07): 0.81
effect on PDZ binding profile (in words) (holdup/FP profile, compared with PTEN_11): markedly stronger compared to the affinities observed for the same PDZ partners in PTEN_11
Max BI (maximum over PDZome): 0.88
